Data on 2 molecules can be found in PMC13408523, “Psoralen and Seselin Stabilize the α-helix Structure in Lysozyme and Inhibit the α-helix to β-sheet Exchange: An Efficient Anti-Amyloidogenic Mechanism” (Advanced Pharmaceutical Bulletin, 2025).

By Kd is commonly meant the constant that tells how readily two partners part at equilibrium.

Like-named read-outs stand apart in the source and are kept apart here.

This experiment deals with T1, hen egg white lysozyme (HEWL) (Gallus gallus, UniProt P00698).
T1 construct: gene LYZ
The experiment in a line: SPR (HEWL amine-coupled on CMD gold chip, […]°C); intrinsic fluorescence quenching. It counts as binding.

T1 sequence (P00698 19-147): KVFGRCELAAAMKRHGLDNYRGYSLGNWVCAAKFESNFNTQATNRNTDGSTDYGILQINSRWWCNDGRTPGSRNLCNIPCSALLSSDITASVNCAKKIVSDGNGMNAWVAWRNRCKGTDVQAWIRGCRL

Molecule `O=c1ccc2cc3ccoc3cc2o1` [psoralen] had a Kd of 9.32 µM.
As for `CC1(C)C=Cc2c(ccc3ccc(=O)oc23)O1` [seselin], the Kd (read-out: Kd) came out at 46.8 µM.
